Reference: PubChem BioAssay AID2060503 (Molecular Pharmacology Branch, DTP, NCI, 2025)

Test system: 817829-284-R-J1-PDC complex spheroids, viability
Assay: Anticancer human tumor 817829-284-R-J1-PDC patient-derived colon adenocarcinoma cell line growth inhibition [GQUAD]
Conditions: for IC50: curve of first compound; for viability, T/C: stronger effect = lower value; active means viability on the fitted dose curve at most 10% of control; inactive means the rest
Description: DNA G-quadruplex Stabilizer Agents in Combinations in Complex Spheroids
A high-throughput screen of multi-cell type tumor spheroids was designed to identify active combinations of DNA G-quadruplex stabilizer agents and targeted small molecules. Complex spheroids include a stromal component modeled by human endothelial cells (HUVEC) and fibroblasts modeled by human mesenchymal stem cells (MSCs). The concentration ranges selected for each drug and investigational agent were based upon clinically achievable concentrations if the clinical Cmax of the agent was known.
Compounds. The drugs and investigational agents: pidnarulex (CX-5461; NSC782164), APTO-253 (NSC789042), BRACO-19 (NSC847499), peposertib (NSC802822), ceralasertib (NSC780249), elimusertib (NSC800525), camonsertib (NSC841442), AZD-1390 (NSC803789), olaparib (NSC753686), talazoparib (NSC767125), ART-558 (NSC835418), sotorasib (NSC818433), MRTX-1133 (NSC836407), SN-38 (NSC673596), topotecan (NSC609699), etoposide (NSC141540), doxorubicin (NSC123127), gemcitabine (NSC613327), 5-fluorouracil (NSC19893), paclitaxel (NSC125973), vemurafenib (NSC761431), panobinostat (NSC761190), R-306465 (JNJ-16241199; NSC773264), adavosertib (NSC754352), TP-3654 (NSC805149), carboplatin (NSC241240), KSQ-4279 (NSC840948), and staurosporine (NSC755774) were obtained from the National Cancer Institute (NCI) Developmental Therapeutics Program Chemical Repository (34). The FDA-approved anticancer drug set is available from the NCI Developmental Therapeutics Program. […] The stock solutions were prepared in dimethyl sulfoxide (DMSO, Sigma-Aldrich, St. Louis, MO, cat. D2650) at 800-fold the tested concentration and stored at -70 degrees C prior to their use. All drugs and investigational agents were tested over a range starting from a high concentration at or near the clinical Cmax and decreasing in half-log increments. If the clinical Cmax for an agent had not been determined, the highest concentration tested was 10 microM.
2.3 Cell Culture. All cells were maintained in an incubator at 37 degrees C and 5% CO2 with 95% humidity. The PDC lines were cultured according to standard operating procedures established by the NCI PDMR. All PDCs were thawed and cultured in Matrigel-coated flasks prepared with a working solution of 1X Ham's F-12 nutrient mix, without supplementation (Invitrogen, cat. 11765054), 100 U/mL penicillin-streptomycin (Invitrogen, cat. 15140122), and 2.5% Matrigel (Corning Inc., cat. 354248) for the first three passages. The 857933-349-R-J2-PDC line was cultured in 6C/Colon 1B media, which includes advanced DMEM/F-12 (Thermo Fisher Scientific, cat. 12634028), 10 mM HEPES (Thermo Fisher Scientific, cat. 15630080), 1X GlutaMAX supplement (Thermo Fisher Scientific, cat. 35050061), 0.1 mg/mL primocin (InvivoGen, cat. ant-pm-2), 10% defined fetal bovine serum, heat inactivated (HyClone Laboratories Inc., cat. SH30070.03HI), 50% L-WRN conditioned media (ATCC, cat. CRL-3276), 1.25 mM N-Acetyl-L-cysteine (Sigma-Aldrich, cat. A9165), 10 mM nicotinamide (Sigma-Aldrich, cat. N0636), 1X B-27 supplement (Thermo Fisher Scientific, cat. 17504044), 1X N-2 supplement (Thermo Fisher Scientific, cat. 17502048), 10 microM Y-27632 dihydrochloride (Tocris Bioscience, cat. 1254), and 50 ng/mL human EGF recombinant protein (Thermo Fisher Scientific, cat. PHG0311). The 485176-168-R4-J1-PDC line was cultured in Panc media, which includes all 6C/Colon 1B media components plus 100 ng/mL human FGF-10 (Thermo Fisher Scientific, cat. 100-26), 500 nM SB-431542 (Selleckchem, cat. S1067), and gastrin (Tocris, cat. 3006).
[…]

[1] = second compound 0.0316 µM, first compound 0.0316 µM
[2] = second compound 0.0316 µM, first compound 0.316 µM
[3] = second compound 0.1 µM, first compound 0.0316 µM
[4] = second compound 0.1 µM, first compound 0.316 µM
[5] = second compound 0.316 µM, first compound 0.0316 µM
[6] = second compound 0.316 µM, first compound 0.316 µM
[7] = second compound 1 µM, first compound 0.0316 µM
[8] = second compound 1 µM, first compound 0.316 µM
[9] = second compound 3.16 µM, first compound 0.0316 µM
[10] = second compound 3.16 µM, first compound 0.316 µM
[11] = second compound 10 µM, first compound 0.0316 µM
[12] = second compound 10 µM, first compound 0.316 µM
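Further: spheroids exposed to agents for 7 days before readout.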
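Wherever viability, T/C is given: percent viability relative to DMSO vehicle control taken as 100%.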

Cc1cccc(N(C)C(=O)C2C(O)CCN2c2nc(C)cc(C(F)(F)F)c2C#N)c1 (centres undefined) + CN(C)c1ccc(Nc2c3ccc(NC(=O)CCN4CCCC4)cc3nc3cc(NC(=O)CCN4CCCC4)ccc23)cc1
> 10 µM: IC50 (second compound 0.0316 µM) | IC50 (second compound 0.1 µM) | IC50 (second compound 0.316 µM) | IC50 (second compound 1 µM) | IC50 (second compound 3.16 µM)
4.03 µM: IC50 (second compound 10 µM)
inactive: viability, T/C [1] 101% | viability, T/C (second compound 0.0316 µM, first compound 0.1 µM) 102% | viability, T/C [2] 92.5% | viability, T/C (second compound 0.0316 µM, first compound 1 µM) 90% | viability, T/C (second compound 0.0316 µM, first compound 3.16 µM) 92.8% | viability, T/C (second compound 0.0316 µM, first compound 10 µM) 85.4% | viability, T/C [3] 89.3% | viability, T/C (second compound 0.1 µM, first compound 0.1 µM) 109% | viability, T/C [4] 90.1% | viability, T/C (second compound 0.1 µM, first compound 1 µM) 112% | viability, T/C (second compound 0.1 µM, first compound 3.16 µM) 93.3% | viability, T/C (second compound 0.1 µM, first compound 10 µM) 79.9% | viability, T/C [5] 99.3% | viability, T/C (second compound 0.316 µM, first compound 0.1 µM) 96.8% | viability, T/C [6] 90.6% | viability, T/C (second compound 0.316 µM, first compound 1 µM) 93.1% | viability, T/C (second compound 0.316 µM, first compound 3.16 µM) 99.4% | viability, T/C (second compound 0.316 µM, first compound 10 µM) 90.8% | viability, T/C [7] 95.5% | viability, T/C (second compound 1 µM, first compound 0.1 µM) 88.2% | viability, T/C [8] 90.5% | viability, T/C (second compound 1 µM, first compound 1 µM) 83.7% | viability, T/C (second compound 1 µM, first compound 3.16 µM) 94% | viability, T/C (second compound 1 µM, first compound 10 µM) 81% | viability, T/C [9] 99.6% | viability, T/C (second compound 3.16 µM, first compound 0.1 µM) 99.3% | viability, T/C [10] 94.3% | viability, T/C (second compound 3.16 µM, first compound 1 µM) 91.8% | viability, T/C (second compound 3.16 µM, first compound 3.16 µM) 111% | viability, T/C (second compound 3.16 µM, first compound 10 µM) 82.1% | viability, T/C [11] 97.7% | viability, T/C (second compound 10 µM, first compound 0.1 µM) 88.7% | viability, T/C [12] 85.7% | viability, T/C (second compound 10 µM, first compound 1 µM) 69.4% | viability, T/C (second compound 10 µM, first compound 3.16 µM) 52.2% | viability, T/C (second compound 10 µM, first compound 10 µM) 40.2%

Cn1ncnc1[C@H]1c2n[nH]c(=O)c3cc(F)cc(c23)N[C@@H]1c1ccc(F)cc1 + CN(C)c1ccc(Nc2c3ccc(NC(=O)CCN4CCCC4)cc3nc3cc(NC(=O)CCN4CCCC4)ccc23)cc1
> 0.316 µM: IC50 (second compound 0.0316 µM) | IC50 (second compound 0.1 µM) | IC50 (second compound 0.316 µM) | IC50 (second compound 1 µM) | IC50 (second compound 3.16 µM) | IC50 (second compound 10 µM)
inactive: viability, T/C (second compound 0.0316 µM, first compound 0.000999 µM) 91.3% | viability, T/C (second compound 0.0316 µM, first compound 0.00316 µM) 112% | viability, T/C (second compound 0.0316 µM, first compound 0.00999 µM) 112% | viability, T/C [1] 95% | viability, T/C (second compound 0.0316 µM, first compound 0.0999 µM) 85.1% | viability, T/C [2] 68.9% | viability, T/C (second compound 0.1 µM, first compound 0.000999 µM) 95.6% | viability, T/C (second compound 0.1 µM, first compound 0.00316 µM) 105% | viability, T/C (second compound 0.1 µM, first compound 0.00999 µM) 95.4% | viability, T/C [3] 94% | viability, T/C (second compound 0.1 µM, first compound 0.0999 µM) 86.2% | viability, T/C [4] 80% | viability, T/C (second compound 0.316 µM, first compound 0.000999 µM) 95.8% | viability, T/C (second compound 0.316 µM, first compound 0.00316 µM) 104% | viability, T/C (second compound 0.316 µM, first compound 0.00999 µM) 95.8% | viability, T/C [5] 101% | viability, T/C (second compound 0.316 µM, first compound 0.0999 µM) 97.7% | viability, T/C [6] 78.6% | viability, T/C (second compound 1 µM, first compound 0.000999 µM) 90% | viability, T/C (second compound 1 µM, first compound 0.00316 µM) 99% | viability, T/C (second compound 1 µM, first compound 0.00999 µM) 99.6% | viability, T/C [7] 92.6% | viability, T/C (second compound 1 µM, first compound 0.0999 µM) 90.4% | viability, T/C [8] 71.8% | viability, T/C (second compound 3.16 µM, first compound 0.000999 µM) 92.2% | viability, T/C (second compound 3.16 µM, first compound 0.00316 µM) 99.7% | viability, T/C (second compound 3.16 µM, first compound 0.00999 µM) 90.6% | viability, T/C [9] 89.2% | viability, T/C (second compound 3.16 µM, first compound 0.0999 µM) 104% | viability, T/C [10] 79.9% | viability, T/C (second compound 10 µM, first compound 0.000999 µM) 97.2% | viability, T/C (second compound 10 µM, first compound 0.00316 µM) 97.3% | viability, T/C (second compound 10 µM, first compound 0.00999 µM) 89.6% | viability, T/C [11] 81.2% | viability, T/C (second compound 10 µM, first compound 0.0999 µM) 79.1% | viability, T/C [12] 63.4%
